Structures are written as SMILES.

Holding throughout (assay type): cell-based
One data set is described as follows: WST-1 cell viability. The settings on record: human, uninfected HeLa cells, WST-1, relative to DMSO control as 100%. As for the experimental part: Uninfected HeLa cells were cultured with 32 μM (the highest concentration used in antichlamydial analysis) of individual compound or 0.5% DMSO for 48 h. After 10 μL of WST-1 reagent was added, cells were incubated for an additional 1 h, and absorbance at 450 nm was recorded. The viability of compound-treated cells was calculated by the absorbance relative to that of DMSO control setting as 100% [22].
On the technique in general: Formazan colour is commonly taken as a measure of viable cells.

Data set [1] relates to Chlamydia trachomatis serovar D (strain UW-3/CX). As to the kind of experiment: Infectious progeny inhibition assay, C. trachomatis D. To be noted: Chlamydia trachomatis, HeLa, generation of infectious progeny EBs in HeLa cells, MOI 0.2, 36 hpi, 1 to 32 μM; read-out: IC50 (μM) Mean (95% confidence interval) Ct D. As for the experimental part: (§1) Chlamydia trachomatis serovars D (strain UW-3/CX) and L2 (strain 434/Bu) were purchased from ATCC. HeLa cells purchased from ATCC were routinely cultured in DMEM supplemented with 10% heat-inactivated FBS (Sigma-Aldrich) and 10 μg/mL gentamicin at 37°C in a humidified atmosphere of 5% and were used for chlamydial propagation and cell culture experiments. EBs were purified by Renografin density gradient and stored in sucrose-phosphate-glutamate (SPG) buffer at -80°C [20]. A mouse polyclonal anti-MoPn (C. muridarum strain Nigg II) antibody, which was produced in our laboratory and cross-reacting with C. trachomatis D and L2, was used as a primary antibody for both stains detection.
(§2) Cell monolayers seeded onto coverslips in a 24-well plate were infected with C. trachomatis at a multiplicity of infection (MOI) of 0.2 inclusion-forming units (IFU) per cell. Unless noted, individual compound was added into culture medium at indicated concentrations simultaneously at the time of inoculation. 0.5% DMSO was used as negative control and 11.25 μM tetracycline (Sigma-Aldrich) as positive control. For C. trachomatis D, an additional centrifugation (900 × g at room temperature for 1 h) was applied to facilitate the infection. At 36 hours postinfection (hpi), infected cells were fixed by precooled methanol and then subjected to sequential staining processed with a primary antibody and a FITC-conjugated secondary antibody. Evans blue was used as cytoplasm counterstain. Images were shot by an Olympus IX51 fluorescence microscope.
(§3) Cells monolayers seeded in 48-well plate were infected and treated with chemicals as above. After incubation for 36 hours, infected cells were washed twice, scraped off, and lysed by sonication to release the infectious progeny EBs. Then the lysates were used to reinfect fresh cell monolayers grown in 96-well plate following 1 : 10 serial dilution. The inclusion counts were obtained by immunofluorescence staining as above to calculate the number of infectious progeny EBs in each sample. Percent inhibition was calculated based on EB counts in compound-treated samples relative to DMSO-treated negative control.
(§4) Data from the three independent experiments were presented as mean ± standard deviations (SD) and were subjected to pairwise Student's t-tests. p < 0.05 and p < 0.01 are considered statistically significant and statistically highly significant, respectively. The IC50 values, defined as the concentration of compound at which the generation of infectious progeny EBs was reduced by 50% relative to negative control, were calculated by nonlinear regression from percent inhibition data using the GraphPad Prism 5 software, and presented as mean (95% confidence interval).

Data set [2] has as its system Chlamydia trachomatis serovar L2 (strain 434/Bu). As to the kind of experiment: Infectious progeny inhibition assay, C. trachomatis L2. To be noted: Chlamydia trachomatis, HeLa, generation of infectious progeny EBs in HeLa cells, MOI 0.2, 36 hpi, 1 to 32 μM; read-out: IC50 (μM) Mean (95% confidence interval) Ct L2. As to the method:
as §1, §2, §3, §4

Consider `O=[N+]([O-])c1ccc(C2CC3C(c4ccccc4Br)N(c4ccccc4)OC3N2c2ccccc2)cc1` (stereo not drawn) [Compound 12], for which the viability (commonly a read-out of living cells in per cent, often relative to untreated cells) at 48 h, 32 µM in “WST-1 cell viability” was 104%. In addition, the IC50 (commonly the concentration at which inhibition is half-maximal) in data set [1] turned out to be 12.5 µM; in data set [2] it was 17.5 µM.

Regarding `Cc1ccc(C2CC3C(c4ccccc4)N(c4ccccc4)OC3N2c2ccc(C)cc2)cc1` (stereo not drawn) [Compound 16], in “WST-1 cell viability”, the viability at 48 h, 32 µM was found to be 96.5%. Further, the results for the IC50 in data set [1] and in data set [2] were 5.93 µM and 13.5 µM, respectively.

Consider `Cc1ccc(C2CC3C(c4ccccc4Br)N(c4ccccc4)OC3N2c2ccccc2)cc1` (stereo not drawn) [Compound 11], for which the viability at 48 h, 32 µM in “WST-1 cell viability” came out at 99.7%. Further, the IC50 in data set [1] is 23.5 µM; in data set [2], greater than 32 µM.

For `Fc1ccc(N2C(c3cccs3)CC3C(c4ccccc4Br)N(c4ccccc4)OC32)cc1` (stereo not drawn) [Compound 10], the viability at 48 h, 32 µM in “WST-1 cell viability” was roughly 90%. In addition, the IC50 came to 15.4 µM in data set [1] and 17.4 µM in data set [2].

In the case of `Cc1ccc(N2C(c3ccccc3)CC3C(c4ccccc4Br)N(c4ccccc4)OC32)cc1` (stereo not drawn) [Compound 13], in “WST-1 cell viability”, the viability at 48 h, 32 µM is 95.7%. The IC50 is 16.3 µM in data set [1] and greater than 32 µM in data set [2].

As for `COc1ccc(N2C(c3ccccc3)CC3C(c4ccccc4Br)N(c4ccccc4)OC32)cc1` (stereo not drawn) [Compound 4], the viability at 48 h, 32 µM in the data set “WST-1 cell viability” turned out to be 97.5%. In addition, the IC50 in data set [1] is greater than 32 µM; in data set [2] it was 11.2 µM.

With `Brc1ccccc1C1C2CC(/C=C/c3ccccc3)N(c3ccccc3)C2ON1c1ccccc1` (stereo not drawn) [Compound 14], the viability at 48 h, 32 µM in the data set “WST-1 cell viability” amounted to 98%. Besides, the results for the IC50 in data set [1] and in data set [2] were 16.3 µM and 16.8 µM, respectively.

In the case of `Fc1ccc(N2C(c3cccc4ccccc34)CC3C(c4ccccc4Br)N(c4ccccc4)OC32)cc1` (stereo not drawn) [Compound 18], the viability at 48 h, 32 µM in the data set “WST-1 cell viability” stood at 106%. Moreover, the IC50 is 21 µM in data set [1] and greater than 32 µM in data set [2].

Consider `Fc1ccc(N2C(C3CCCCC3)CC3C(c4ccccc4Br)N(c4ccccc4)OC32)cc1` (stereo not drawn) [Compound 9], for which the viability at 48 h, 32 µM in the data set “WST-1 cell viability” came to 96.5%. Besides, the results for the IC50 in data set [1] and in data set [2] were 19.6 µM and greater than 32 µM, respectively.

As for `Brc1ccccc1C1C2CC(c3ccccc3)N(c3ccccc3)C2ON1c1ccccc1` (stereo not drawn) [Compound 7], in “WST-1 cell viability”, the viability at 48 h, 32 µM was roughly 90%. The IC50 is greater than 32 µM in data set [1] and 19.1 µM in data set [2].

`Brc1ccc(C2C3CC(c4ccccc4)N(c4ccccc4)C3ON2c2ccccc2)cc1` (stereo not drawn) [Compound 3]: the viability at 48 h, 32 µM in “WST-1 cell viability” is 99.9%. Further, the IC50 is 20.9 µM in data set [1] and 8.67 µM in data set [2].

With `COc1ccc(N2C(c3ccccc3)CC3C(c4cccc(Br)c4)N(c4ccccc4)OC32)cc1` (stereo not drawn) [Compound 5], the viability at 48 h, 32 µM in “WST-1 cell viability” is 95.2%. In addition, the IC50 in data set [1] is greater than 32 µM; in data set [2] it was 15.5 µM.

As for `O=[N+]([O-])c1ccc(C2CC3C(c4ccccc4Cl)N(c4ccccc4)OC3N2c2ccccc2)cc1` (stereo not drawn) [Compound 15], the viability at 48 h, 32 µM in “WST-1 cell viability” is 104%. Further, the IC50 in data set [1] came to 12.2 µM; in data set [2] it was 9.77 µM.

For the compound `Brc1ccccc1C1C2CC(c3ccccc3Br)N(c3ccccc3)C2ON1c1ccccc1` (stereo not drawn) [Compound 17], in the data set “WST-1 cell viability”, the viability at 48 h, 32 µM was found to be 114%. For the same compound, the results for the IC50 in data set [1] and in data set [2] were 27.6 µM and greater than 32 µM, respectively.

Take `COc1ccc(N2C(c3ccccc3)CC3C(c4ccc(Br)cc4)N(c4ccccc4)OC32)cc1` (stereo not drawn) [Compound 6]: in the data set “WST-1 cell viability”, the viability at 48 h, 32 µM is roughly 90%. The IC50 in data set [1] came out at 16.9 µM; in data set [2] it was 9.08 µM.

Take `Brc1ccccc1C1c2ccccc3cccc2N2C(c4ccccc4)CC3C2ON1c1ccccc1` (stereo not drawn) [Compound 8]: the viability at 48 h, 32 µM in “WST-1 cell viability” is 102%. Also, the figures for the IC50 in data set [1] and in data set [2] were 28.6 µM and 25.4 µM, respectively.

Values taken from article PMC7984888, “Inhibitory Activity of Pyrroloisoxazolidine Derivatives against Chlamydia trachomatis” (BioMed Research International, 2021).
